Reference: article PMC5608804, “Stepwise Evolution Improves Identification of Diverse Peptides Binding to a Protein Target” (Scientific Reports, 2017)

These substances were tested against T1, streptavidin (Streptomyces avidinii, UniProt P22629) (assay: Cy5-streptavidin binding on HotSpot discovery array, 5-mer L-peptide library). Conditions: 5-mer L-peptide library array, Cy5-streptavidin; from average of three arrays.
T1 construct: purchased GE Healthcare (Little Chalfont, UK)
Summary of the method: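 Array of 2,476,099 5-mer peptides (19 amino acids, no cysteine) with Gly-Ser linkers, probed overnight at 4 °C with 0.5 µg/ml Cy5-streptavidin in Tris pH 7.4 buffer containing casein or BSA plus Tween-20. Cy5 fluorescence read at 635 nm; peptides selected by signal-to-background >4 across three arrays.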

T1 sequence (P22629 25-183): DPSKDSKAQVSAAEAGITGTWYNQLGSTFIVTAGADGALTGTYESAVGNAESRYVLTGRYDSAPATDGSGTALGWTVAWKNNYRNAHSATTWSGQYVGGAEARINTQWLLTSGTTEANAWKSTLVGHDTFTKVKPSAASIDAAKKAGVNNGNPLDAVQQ

Row | Substance | S/B (signal to background ratio)
1 | ERHPQ | 134.2
2 | HPQGE | 40.1
3 | HRHPQ | 149.4
4 | MLHPQ | 136.4
5 | RQHPQ | 139.3
6 | DHHPM | 32.9
7 | HPQTG | 28.1
8 | FQHPQ | 161.2
9 | VHHPQ | 141.1
10 | KWHPQ | 127.9
11 | RFHPQ | 161.9
12 | GHPQF | 125.7
13 | GHHPQ | 149.8
14 | PHPQA | 128.7
15 | SHPQF | 132.4
16 | FFHPQ | 192.2
17 | LHPQM | 29.4
18 | FPHPQ | 173.5
19 | TQHPQ | 120.0
20 | FIHPQ | 152.7
21 | YQHPQ | 172.3
22 | HPQAF | 40.6
23 | SRHPQ | 154.4
24 | YVHPQ | 145.8

Row | Substance | S/B (signal to background ratio)
25 | FDHPQ | 121.8
26 | PRHPQ | 161.5
27 | SHPQN | 135.7
28 | HPQGP | 162.1
29 | HPQVF | 56.9
30 | LVHPQ | 129.9
31 | SEHPM | 19.1
32 | AAHPQ | 123.9
33 | FKHPM | 44.4
34 | NHPQG | 118.8
35 | YWHPM | 54.2
36 | TNHPM | 57.8
37 | SQHPM | 50.2
38 | AHPQM | 32.6
39 | HPQVH | 57.8
40 | LGAYH [L-amino acid 5-mer array peptide] | 52.2
41 | DYHPM | 28.4
42 | LQHPQ | 163.6
43 | WNHPQ | 215.8
44 | LGHPQ | 171.2
45 | HHPMF | 19.8
46 | HPQGK | 29.8
47 | PQHPQ | 136.1
48 | RSHPQ | 137.5

Row | Substance | S/B (signal to background ratio)
49 | SLHPM | 46.4
50 | EHPQV | 41.0
51 | YRHPQ | 185.8
52 | FHPQG | 146.3
53 | VHPQF | 135.2
54 | YHPQT | 25.8
55 | HPQFR | 23.8
56 | VNHPQ | 137.6
57 | TAHPQ | 120.0
58 | HGHPQ | 129.3
59 | MAHPQ | 140.8
60 | DHPQH | 31.2
61 | WHPQY | 53.1
62 | WSHPM | 129.1
63 | QHPQA | 138.2
64 | NGHPM | 54.5
65 | HPMAP | 37.9
66 | LYHPQ | 211.9
67 | FRHPQ | 211.5
68 | HPQHF | 18.9
69 | RNHPM | 54.6
70 | PLHPM | 39.0

Same assay, conditions: 5-mer L-peptide library array, Cy5-streptavidin; from the average of three arrays

Row | Substance | S/B (signal to background ratio)
71 | YFHPM | 69.8
72 | YRHPM | 71.5
73 | HPQVG | 114.3
74 | QPHPQ | 90.3
75 | QTHPQ | 90.7
76 | LHPQF | 107.9
77 | FHPQV | 107.2
78 | IDHPQ | 88.2
79 | HPQVY | 64.1
80 | PDHPQ | 72.7
81 | HPQVP | 62.1
82 | HPQYN | 66.1
83 | NHPQF | 99.9
84 | WHPQH | 79.3
85 | FHPQS | 97.1
86 | QNHPM | 58.4
87 | QYHPM | 82.7
88 | RRHPQ | 103.0
89 | PHPQF | 98.8
90 | YDHPQ | 116.2
91 | IRHPM | 63.6
92 | GKHPQ | 73.5
93 | FLHPM | 84.7

Row | Substance | S/B (signal to background ratio)
94 | HPQAP | 82.5
95 | NHPQV | 81.6
96 | KSHPQ | 80.0
97 | NIHPQ | 100.3
98 | LDHPQ | 89.3
99 | KAHPQ | 77.0
100 | VIHPQ | 83.6
101 | YHPMA | 80.6
102 | WEHPM | 69.6
103 | HKHPQ | 86.4
104 | DLHPQ | 60.4
105 | YAHPM | 87.4
106 | SHPQV | 98.7
107 | KHPQA | 92.8
108 | HPQNV | 84.4
109 | ANHPQ | 115.8
110 | WMHPM | 117.2
111 | RHPQN | 86.1
112 | ESHPQ | 64.3
113 | DFHPQ | 75.2
114 | IFHPM | 60.0
115 | DAHPQ | 62.6
116 | YQHPM | 84.6

Same assay, conditions: 5-mer L-peptide library, from the average of three arrays

Row | Substance | S/B (signal to background ratio)
117 | PGWAH [L-amino acid 5-mer array peptide] | 4.8
118 | WRHPH | 4.2
119 | FFMMF [L-amino acid 5-mer array peptide] | 4.3
120 | EVHPM | 5.0
121 | MPQHF | 4.4
122 | YHPMI | 4.8
123 | MPWRY [L-amino acid 5-mer array peptide] | 5.0
124 | PHPMW | 5.2
125 | HPAYT | 5.1
126 | MGNHF [L-amino acid 5-mer array peptide] | 4.3
127 | HPQIP | 4.0
128 | HPMNY | 4.6
129 | YWTDG [L-amino acid 5-mer array peptide] | 4.7
130 | HPQRI | 5.0

Same assay, conditions: average of three arrays, L-peptide 5-mer library

Row | Substance | S/B (signal to background ratio)
131 | PGWAH [L-amino acid 5-mer array peptide] | 4.8
132 | LGRFH [L-amino acid 5-mer array peptide] | 8.7
133 | LSVYH [L-amino acid 5-mer array peptide] | 5.3
134 | FFMMF [L-amino acid 5-mer array peptide] | 4.3
135 | FDGWL [L-amino acid 5-mer array peptide] | 6.7
136 | PSWAH [L-amino acid 5-mer array peptide] | 7.3
137 | NWDVI [L-amino acid 5-mer array peptide] | 5.3
138 | WPPSL [L-amino acid 5-mer array peptide] | 7.7
139 | MPWRY [L-amino acid 5-mer array peptide] | 5.0
140 | MGNHF [L-amino acid 5-mer array peptide] | 4.3
141 | LGAYH [L-amino acid 5-mer array peptide] | 52.2
142 | YWTDG [L-amino acid 5-mer array peptide] | 4.7
143 | LGGYH [L-amino acid 5-mer array peptide] | 6.1
144 | PAWGH [L-amino acid 5-mer array peptide] | 11.9
145 | NWDEW [L-amino acid 5-mer array peptide] | 7.8
146 | TPSFG [L-amino acid 5-mer array peptide] | 6.3

Same assay, conditions: signal to background ratio; 5-mer L-peptide library array, Cy5-streptavidin

Row | Substance | S/B
147 | HPMYS | 8.6
148 | RHPMY | 14.4
149 | VHPMN | 13.1
150 | LGRFH [L-amino acid 5-mer array peptide] | 8.7
151 | HPMFW | 6.5
152 | LSVYH [L-amino acid 5-mer array peptide] | 5.3
153 | HPQSH | 12.3
154 | FDGWL [L-amino acid 5-mer array peptide] | 6.7
155 | FLHHP | 5.9
156 | GHPQK | 13.3
157 | FHPMF | 14.7
158 | YHPMY | 12.0
159 | HPMGI | 7.9
160 | IHPQT | 13.6
161 | PSWAH [L-amino acid 5-mer array peptide] | 7.3
162 | HPQQD | 7.4
163 | HPQPD | 6.3
164 | NWDVI [L-amino acid 5-mer array peptide] | 5.3
165 | WPPSL [L-amino acid 5-mer array peptide] | 7.7
166 | THPQK | 14.5
167 | WHPDW | 5.3
168 | KHPMY | 6.0
169 | KHPQT | 7.6
170 | RHPQP | 7.4
171 | GEHPM | 14.8
172 | SHPMY | 11.0
173 | PMPDE | 6.3

Row | Substance | S/B
174 | LHPQT | 15.6
175 | PHPMN | 14.3
176 | HPQLG | 9.1
177 | FHPQP | 6.3
178 | YHPQI | 14.3
179 | HPWRF | 7.0
180 | HPQQQ | 10.8
181 | HPMFR | 5.2
182 | HPMGK | 5.3
183 | LHPMR | 7.0
184 | HPMFH | 6.8
185 | HHPMM | 18.7
186 | AHPQD | 10.2
187 | LHPMI | 5.3
188 | HPMYP | 15.8
189 | HPMMW | 5.7
190 | DHPMK | 13.3
191 | LGGYH [L-amino acid 5-mer array peptide] | 6.1
192 | FHPQK | 14.2
193 | PAWGH [L-amino acid 5-mer array peptide] | 11.9
194 | LHPMN | 9.7
195 | DHPMY | 6.4
196 | NWDEW [L-amino acid 5-mer array peptide] | 7.8
197 | IHPQK | 11.6
198 | TPSFG [L-amino acid 5-mer array peptide] | 6.3
199 | KHPQW | 9.2
200 | HPQPG | 5.6
